This passage reports TGI results from PubChem BioAssay (NCI).

Each structure is given as a SMILES string.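 Test compounds were applied to cells in 96-well plates for 48 hours at 5 doses. The concentration for full growth arrest is given as TGI.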 Where only a bound is given, the exact number is not on record here.

Test systems include A549 NSCLC; DU-145 prostate; HCT-116 colon; NCI-H226 lung; NCI/ADR-RES ovarian; SF-539 CNS; SK-OV-3 ovarian; TK-10 renal; U251 CNS; UACC-62 melanoma.
Holding throughout (test): NCI-60 cell line screen, 48 h

As to `OCC(O)C1OC2CC1Nc1ccccc1N2` (centres undefined), the TGI with A549 NSCLC, with DU-145 prostate, in the assay with HCT-116 colon, in the assay on NCI-H226 lung, in the assay with NCI/ADR-RES ovarian and in the assay with SF-539 CNS was more than 100 µM in each case. The TGI in the assay with SK-OV-3 ovarian, with TK-10 renal, with U251 CNS and with UACC-62 melanoma was more than 100 µM throughout.

As for `O=C(CN1CCCCC1)c1ccc2c(c1)Sc1ccccc1O2`, the TGI with A549 NSCLC came out at 29.1 µM; with DU-145 prostate, 49.3 µM; in the assay on HCT-116 colon, 35 µM; in the assay on NCI-H226 lung, 29 µM; with NCI/ADR-RES ovarian it was 35 µM; in the assay with SF-539 CNS, 30.6 µM. Besides, the TGI in the assay on SK-OV-3 ovarian amounted to 29.6 µM; in the assay on TK-10 renal, 44.6 µM; in the assay on U251 CNS it was 39.6 µM; in the assay on UACC-62 melanoma, 25.7 µM.

In the case of `CCOC(=O)/C(C#N)=C/c1ccc(CO)o1`, the TGI with A549 NSCLC, in the assay with DU-145 prostate, in the assay on HCT-116 colon, in the assay on NCI-H226 lung, with NCI/ADR-RES ovarian and in the assay with SF-539 CNS was more than 100 µM each time. In addition, the TGI in the assay on SK-OV-3 ovarian, in the assay on TK-10 renal, in the assay on U251 CNS and in the assay on UACC-62 melanoma was more than 100 µM each time.

With `COc1ccc(C(=C(I)c2ccccc2)c2ccc(OC)cc2)cc1`, the TGI in the assay with A549 NSCLC, with DU-145 prostate, with HCT-116 colon, in the assay on NCI-H226 lung, in the assay on NCI/ADR-RES ovarian and with SF-539 CNS was more than 100 µM throughout. Also, the TGI in the assay on SK-OV-3 ovarian, in the assay with TK-10 renal, in the assay on U251 CNS and in the assay with UACC-62 melanoma was more than 100 µM each time.

Take `C=C1C(=O)O[C@H]2C/C(C)=C/CC/C(C)=C/CC[C@@](C)(O)[C@@H](I)C[C@@H]12`: the TGI in the assay with A549 NSCLC is 24.8 µM; in the assay on DU-145 prostate, 22.2 µM; with HCT-116 colon, 12.3 µM; with NCI-H226 lung it was 12.2 µM; in the assay with NCI/ADR-RES ovarian, 24.7 µM; in the assay with SF-539 CNS, 12.3 µM. The TGI turned out to be 29.8 µM with SK-OV-3 ovarian, 23.6 µM in the assay on TK-10 renal, 33.4 µM with U251 CNS and 23.9 µM in the assay with UACC-62 melanoma.

With `O=C1OC2(C(F)(F)F)Oc3ccccc3CN2C12CCCCC2` (centres undefined), the TGI in the assay on A549 NSCLC was more than 100 µM; in the assay with DU-145 prostate, more than 100 µM; in the assay on HCT-116 colon, 82.8 µM; with NCI-H226 lung, 90.8 µM; in the assay with NCI/ADR-RES ovarian it was more than 100 µM; with SF-539 CNS, more than 100 µM. The TGI is 81.7 µM in the assay with SK-OV-3 ovarian, more than 100 µM in the assay with TK-10 renal, 84.4 µM in the assay on U251 CNS and more than 100 µM in the assay with UACC-62 melanoma.

With `OCC(Cn1cncn1)(c1ccc(F)cc1F)n1cncn1` (centres undefined), the TGI with A549 NSCLC, in the assay on DU-145 prostate, in the assay on HCT-116 colon, in the assay with NCI-H226 lung, in the assay with NCI/ADR-RES ovarian and with SF-539 CNS was more than 100 µM in each case. Moreover, the TGI in the assay on SK-OV-3 ovarian, in the assay on TK-10 renal, with U251 CNS and in the assay with UACC-62 melanoma was more than 100 µM in each case.

Regarding `COc1ccc(-c2nc(-c3cc4ccccc4oc3=O)cs2)cc1`, the TGI with A549 NSCLC, with DU-145 prostate, with HCT-116 colon, with NCI-H226 lung, with NCI/ADR-RES ovarian and in the assay on SF-539 CNS was more than 100 µM in each case. For the same compound, the TGI in the assay with SK-OV-3 ovarian was 91.6 µM; with TK-10 renal, more than 100 µM; in the assay with U251 CNS, 47.4 µM; in the assay on UACC-62 melanoma, more than 100 µM.

On to `COc1ccc(/C=C(\C(=C/c2ccc(OC)cc2)[N+](=O)[O-])[N+](=O)[O-])cc1`, for which the TGI is more than 61.3 µM with A549 NSCLC; 24.6 µM in the assay with DU-145 prostate; 24.8 µM in the assay with HCT-116 colon; 33 µM in the assay on NCI-H226 lung; 7.94 µM in the assay with NCI/ADR-RES ovarian; 5.71 µM in the assay on SF-539 CNS. Also, the TGI was found to be 32.4 µM with SK-OV-3 ovarian, 12.2 µM in the assay on TK-10 renal, 8.52 µM with U251 CNS and 9.38 µM in the assay with UACC-62 melanoma.

Consider `O=C(OCCN1CCCCC1)C(c1ccccc1)C1(O)CCSCC1` (centres undefined), for which the TGI in the assay with A549 NSCLC, with DU-145 prostate, in the assay with HCT-116 colon, with NCI-H226 lung, in the assay with NCI/ADR-RES ovarian and with SF-539 CNS was more than 100 µM throughout. Besides, the TGI in the assay on SK-OV-3 ovarian, in the assay with TK-10 renal, in the assay on U251 CNS and in the assay with UACC-62 melanoma was more than 100 µM in each case.

For `NC(c1ccccc1)(C(F)(F)F)P1(=O)OC(=O)c2ccccc2O1` (centres undefined), the TGI in the assay on A549 NSCLC, in the assay with DU-145 prostate, in the assay on HCT-116 colon, with NCI-H226 lung, in the assay on NCI/ADR-RES ovarian and in the assay with SF-539 CNS was more than 100 µM throughout. In addition, the TGI is 74.4 µM with SK-OV-3 ovarian, more than 100 µM in the assay with TK-10 renal, more than 100 µM with U251 CNS and more than 100 µM with UACC-62 melanoma.

Regarding `COc1ccc2c(c1)nc1n2C(N)=Nc2ccccc2S1`, the TGI with A549 NSCLC, with DU-145 prostate, in the assay with HCT-116 colon, with NCI-H226 lung, with NCI/ADR-RES ovarian and in the assay with SF-539 CNS was more than 100 µM each time. The TGI with SK-OV-3 ovarian is more than 100 µM; in the assay with TK-10 renal it was more than 100 µM; in the assay with U251 CNS, more than 100 µM; with UACC-62 melanoma it was more than 74.4 µM.

Turning to `COC(=O)c1ccccc1C#CCCCOS(C)(=O)=O`, the TGI with A549 NSCLC, in the assay on DU-145 prostate, in the assay with HCT-116 colon, with NCI-H226 lung, in the assay on NCI/ADR-RES ovarian and in the assay on SF-539 CNS was more than 10 µM throughout. For the same compound, the TGI with SK-OV-3 ovarian, in the assay with TK-10 renal, in the assay on U251 CNS and in the assay with UACC-62 melanoma was more than 10 µM in each case.

`CCOC(=O)C(NC(=O)CC(C)C)(Nc1ccc(C(F)(F)F)cc1)C(F)(F)F` (centres undefined): the TGI with A549 NSCLC, in the assay on DU-145 prostate, in the assay with HCT-116 colon, with NCI-H226 lung, in the assay on NCI/ADR-RES ovarian and in the assay with SF-539 CNS was more than 100 µM throughout. In addition, the TGI in the assay on SK-OV-3 ovarian, with TK-10 renal and in the assay with U251 CNS was more than 100 µM throughout.
